ChEMBL document CHEMBL5724564, “Patient-derived NASH model to assess the effects of chemical probes on hepatocyte regenerations” (2024)

System: Hepatocyte spheroids
Assay: Cell viability is assessed by cellular ATP assay using CellTiter-Glo Luminescent kit. Viability is expressed as average RLU from biological replicates and normalized to negative control.Toxicity is defined as those with normalized ATP significantly less than 80 percent of the negative control.
Format: functional, Homo sapiens
Set-up: unit not given here

With `Cc1c(NC(=O)c2ccc(C(C)(C)C)cc2)cccc1-c1cn(C)c(=O)c(Nc2ccc(C(=O)N3CCOCC3)cc2)n1` the Proliferation was 0.2187.

With `COc1cc2c(NC3CCN(C(C)C)CC3)nc(C3CCCCC3)nc2cc1OCCCN1CCCC1` the Proliferation (Concentration range 5nM-5uM) was 0.05128.

`CCOC(=O)c1c(/C(C#N)=C\N)c2ccc(Cl)c(Cl)c2n1C` showed a Proliferation of 0.874.

Work on `CCOc1cc(N2CCC(O)CC2)ccc1Nc1ncc2c(n1)N(C)c1ccccc1C(=O)N2C` yielded a Proliferation of 0.02286.

`CNc1nc(-c2ccc3c(N)n[nH]c3c2)cc(N2C[C@@H](C(=O)NC3CCCCC3)CC[C@H]2C)n1` showed a Proliferation of 0.1604.

Work on `CSc1ccc(-c2cc3ncnc(SCC(=O)O)c3s2)cc1` yielded a Proliferation of 0.882.

With `Cc1sc2c(c1C)C(c1ccc(Cl)cc1)=NC(CC(=O)OC(C)(C)C)c1nnc(C)n1-2` (configuration not stated) the Proliferation (Concentration range 1nM-1uM) was 0.001662.

In the case of `CCn1c(-c2nonc2N)nc2c(C#CC(C)(C)O)ncc(OCC3CCCNC3)c21` (configuration not stated), the Proliferation is reported as 0.006402.

In the case of `Cn1cc(-c2ccc3c(c2)CCN3C(=O)Cc2cccc(C(F)(F)F)c2)c2c(N)ncnc21`, the Proliferation is reported as 0.03291.

In the case of `COc1ccccc1S(=O)(=O)Nc1ccc2c(c1)CN(C)C(=O)N2`, the Proliferation (Concentration range 10nM-10uM) is reported as 0.003099.

With `CCCc1cc(C)[nH]c(=O)c1CNC(=O)c1cc(-c2ccnc(N3CCN(C)CC3)c2)cc2c1cnn2C(C)C` the Proliferation (Concentration range 5nM-5uM) was 0.009822.

`COc1cc2c(NC3CCN(C(C)C)CC3)nc(N3CCC(F)(F)CC3)nc2cc1OCCCN1CCCC1` gave a Proliferation (Concentration range 5nM-5uM) of 0.008491.

With `CC(C)N(CCCNC(=O)Nc1ccc(C(C)(C)C)cc1)C[C@H]1O[C@@H](n2cc(Br)c3c(N)ncnc32)[C@H](O)[C@@H]1O` the Proliferation (Concentration range 10nM-10uM) was 0.01234.

In the case of `CCCCNc1ncc(-c2ccc(CN3CCOCC3)cn2)c(N[C@H]2CC[C@H](O)CC2)n1`, the Proliferation is reported as 0.01481.

`COc1cc2c(cc1OCCCN1CCCC1)N=C(N)C21CCC1` gave a Proliferation of 0.2543.

Work on `COc1ccccc1-c1cc(Nc2cccc(CS(N)(=O)=O)c2)ncn1` yielded a Proliferation of 0.2719.

Work on `COc1ccccc1C(=O)Nc1cc2c(cc1N1CCCC1)n(C)c(=O)n2C` yielded a Proliferation of 0.003878.

`Cc1cn(CCN2CCN(c3ccccc3-c3cc(C#N)cc(C(=O)NCCCN4CCCC4)c3)CC2)c2ccccc12` gave a Proliferation (Concentration range 10nM-10uM) of 0.05285.

For `O=C(Nc1ccc2[nH]nc(-c3ccncc3)c2c1)[C@@H]1CCN(CC(=O)N2CCN(c3ccc(-c4ncccn4)cc3)CC2)C1`, the Proliferation was 0.03313.

With `COc1ccc(CCc2nc3cc(-c4c(C)noc4C)ccc3n2C[C@H](C)N2CCOCC2)cc1Cl` the Proliferation (Concentration range 3nM-3uM) was 0.2022.

`CCCOc1ccn2c(C(C)=O)cc(-c3ccccc3S(C)(=O)=O)c2c1` was tested, and the Proliferation (Concentration range 10nM-10uM) was 0.6349.

`COc1cc(C#N)ccc1S(=O)(=O)Nc1ccc2c(c1)cc(C)c(=O)n2C` was tested, and the Proliferation (Concentration range 10nM-10uM) was 0.0004.

`O=C(/C=C/N1C[C@H]2C[C@@H]1CN2c1ccccn1)c1ccccc1O` showed a Proliferation (Concentration range 10nM-10uM) of 0.02966.

`Cc1cc(=O)n(C)c2cc(N3C(=O)CC[C@H](NS(=O)(=O)CC(C)C)[C@H]3c3ccc(Cl)cc3)ccc12` was tested, and the Proliferation (Concentration range 10nM-10uM) was 0.2341.

In the case of `CCn1cc(-c2cccc(C(F)(F)F)c2)c2sc(C(=N)NC3CCS(=O)(=O)CC3)cc2c1=O`, the Proliferation (Concentration range 10nM-10uM) is reported as 0.05754.

With `COc1cc2c(cc1NS(=O)(=O)c1ccc(Br)cc1C)n(C)c(=O)n2C` the Proliferation (Concentration range 5nM-5uM) was 0.003884.

Work on `Cc1cc2nc(N3CCC(C(=O)NC4CCCC4)CC3)n(C(C)C)c2cc1C` yielded a Proliferation (Concentration range 10nM-10uM) of 0.1009.

`Nc1nc(NC2CC2)cc(-c2cccc(Cl)c2Cl)n1` was tested, and the Proliferation was 0.05031.

`CN1CCN(c2ccc(-c3cccc(CN4CCOCC4)c3)cc2NC(=O)c2c[nH]c(=O)cc2C(F)(F)F)CC1` showed a Proliferation (Concentration range 10nM-10uM) of 0.001358.

Compound `CCN(C(=O)CO)[C@H]1CN(/C(=N\C#N)Nc2cccc(OC(F)F)c2)N=C1c1ccc(Cl)c(Cl)c1` has a Proliferation (Concentration range 10nM-10uM) of 0.05466.

`COc1cc(-c2cn(C)c(=O)c3cnccc23)c(OC)cc1CN(C)C` showed a Proliferation of 0.1518.

Compound `CC(C)Oc1ccc(-c2c[nH]cc2CN(C)CCN)cc1` has a Proliferation (Concentration range 10nM-10uM) of 0.2793.

`CCC(=O)N1CCOc2c(cc(-c3ccc(OC)c(OC)c3)cc2OCC2CCCN(C)C2)C1` (configuration not stated) was tested, and the Proliferation (Concentration range 5nM-5uM) was 0.8195.

With `CNCCN1CCC(OCc2ccccc2)CC1` the Proliferation (Concentration range 10nM-10uM) was 0.406.

With `O=C(N[C@@H]1CCOC1)C1CCN(c2nc3cc(Cl)c(Cl)cc3n2-c2ccc3ccccc3n2)CC1` the Proliferation was 0.003884.

Compound `CC(=O)c1cc(-c2cc(C(=O)NC3CC3)ccc2C)c2ncccn12` has a Proliferation of 0.01914.

For `CN1C[C@H](Nc2cnn(C)c(=O)c2Br)C[C@H](c2ccccc2)C1`, the Proliferation was 0.003884.

Work on `O=C(NCC(=O)N1CCCC1)Nc1ccc2cnccc2c1` yielded a Proliferation (Concentration range 10nM-10uM) of 0.06734.

For `Cc1cc2c(cc1N1C(=O)c3cccc4c(CCCO)ccc(c34)C1=O)n(C)c(=O)n2C`, the Proliferation was 0.07854.

`CN(C)[C@H]1CN(C2CCc3cccc(F)c32)C[C@@H]1c1ccc(N2CCN(S(C)(=O)=O)CC2)cc1` (some centres not stated) showed a Proliferation of 0.

Compound `Nc1ncnc2c1ccn2[C@@H]1O[C@H]([C@H](O)c2ccccc2)[C@@H](O)[C@H]1O` has a Proliferation of 0.1599.

For `CO[C@H]1CNC[C@@H](OCC2CCC(F)(F)CC2)[C@@H]1Nc1ncc(-c2cncc(C)c2)c2cc(C)c(=O)[nH]c12`, the Proliferation was 0.02957.

`Cl.Cl.c1ccc([C@@H]2C[C@H]2NC2CCNCC2)cc1` showed a Proliferation (Concentration range 1nM-1uM) of 0.6494.

Work on `Cn1cc(CCn2cnc(-c3cnn(C)c3)c2-c2ccc(C#N)cc2)cn1` yielded a Proliferation (Concentration range 5nM-5uM) of 0.05329.

Compound `COc1cc(Nc2ccnc3ccc(Br)cc23)cc(OC)c1OC` has a Proliferation of 0.5391.

Compound `CCN(CC)S(=O)(=O)Nc1cccc(-c2ccc3c(NC(=O)C4CC4)n[nH]c3c2)c1` has a Proliferation of 0.0004.

In the case of `CC(C)(C)S(=O)(=O)c1cc2c(Nc3ccc4scnc4c3)ncnc2cc1OCCO`, the Proliferation is reported as 0.5541.

`Clc1cc2c(NC3CCCC3)nnc(-c3ccncc3)c2cc1Cl` was tested, and the Proliferation (Concentration range 10nM-10uM) was 0.02485.

`O=C(NC[C@H](O)CN1CCc2ccccc2C1)c1ccnc(NC2CCC2)c1` was tested, and the Proliferation (Concentration range 10nM-10uM) was 0.0004.

For `Cc1cn(-c2cc(NC(=O)c3ccc4c(c3)CN(c3cncnc3)C[C@@H]4C)cc(C(F)(F)F)c2)cn1`, the Proliferation was 0.4149.

In the case of `CNCCN1CCC(c2cc(CN(C)C(=O)c3cccc(Oc4ccccc4)c3)ccn2)CC1`, the Proliferation is reported as 0.03291.

In the case of `CN(C)C(=O)/C(C#N)=C/c1ccc(-c2nc3cnc4[nH]ccc4c3n2C2CCCCC2)o1`, the Proliferation is reported as 0.07463.

For `COc1c(C)cc(NC(=O)c2nn(Cc3ccc(F)cc3)c3c2CN(C(=O)c2ccc[nH]2)C[C@]3(C)C(N)=O)cc1C`, the Proliferation was 0.06587.

`Cc1nnc2c3ccccc3c(N[C@@H](C)[C@H](c3ccccc3)N(C)C)nn12` was tested, and the Proliferation was 0.0435.

`Cl.Cl.NC1(c2ccc(-c3nc4ccn5c(=O)[nH]nc5c4cc3-c3ccccc3)cc2)CCC1` showed a Proliferation of 0.5443.

For `CCCCN(CCCC)C(=O)CN1C[C@H](c2cc(OC)c3c(c2)OCO3)[C@@H](C(=O)O)[C@@H]1CC(C)(C)CCC.Cc1ccc(S(=O)(=O)O)cc1`, the Proliferation was 0.6131.

With `Cl.O=C([C@@H](Cc1cccc(C(F)(F)F)c1)NS(=O)(=O)c1cc(F)c2c(c1)CCNC2)N1CCCC1` the Proliferation (Concentration range 10nM-10uM) was 0.01564.

Compound `CCCCN(CCCC)C(=O)CN1C[C@@H](c2cc(OC)c3c(c2)OCO3)[C@H](C(=O)O)[C@H]1CC(C)(C)CCC.Cl` has a Proliferation of 0.1508.

`COc1cc(C(=O)N2CC[C@@H](O)[C@@H](N)C2)cc2nc(-c3cc4ccccc4n3CC3CC3)n(C)c12.Cl` gave a Proliferation (Concentration range 10nM-10uM) of 0.09717.

With `CCNC(=O)c1cc2c(N3CCOCC3C)ccnc2[nH]1` (configuration not stated) the Proliferation was 0.05192.

`COc1ccccc1C(=O)Nc1cc2c(cc1N1CCNCC1C)n(C)c(=O)n2C` (configuration not stated) showed a Proliferation of 0.1835.

For `O=C(c1ccc2[nH]ccc2c1)N1CCN(S(=O)(=O)c2ccc3[nH]c(=O)oc3c2)CC1`, the Proliferation was 0.6071.

In the case of `O=C(Nc1ccc(I)cc1)N1CCC(n2c(=O)[nH]c3c(Br)cccc32)CC1`, the Proliferation is reported as 0.001093.

`Nc1cc(N)c(NC(=O)Nc2ccc(C(=O)N[C@@H](CCC(=O)O)C(=O)O)cc2)c(=O)[nH]1` gave a Proliferation of 0.01013.

Work on `CS(=O)(=O)Nc1cc([N+](=O)[O-])ccc1OC1CCCCC1` yielded a Proliferation of 0.6769.

Work on `CNC(=O)Nc1ccc2c(c1)CC[C@@]21OC(=O)N(CC(=O)N(Cc2ccc(F)cc2)[C@@H](C)C(F)(F)F)C1=O` [A-485] yielded a Proliferation of 0.02668.

With `CN(C)C/C=C/C(=O)Nc1cc2c(Nc3ccc(F)c(Cl)c3)ncnc2cc1O[C@H]1CCOC1.O=C(O)/C=C\C(=O)O.O=C(O)/C=C\C(=O)O` [AFATINIB DIMALEATE] the Proliferation was 0.1122.

With `O=C(N1CCS(=O)(=O)CC1)N1C[C@H](c2ccc(OC(F)(F)F)cc2)C[C@H](c2nc(C3CC3)no2)C1` [BAY-386] the Proliferation was 0.02871.

With `CC(=O)C1=C(C)N(c2cccc(C(F)(F)F)c2)C(=O)N[C@@H]1c1ccc(C#N)nc1` [BAY-678] the Proliferation was 0.03291.

`Cc1c(NC(=O)c2cc(C(N)=O)nc3cc(F)ccc23)c(C(F)(F)F)nn1Cc1ccc(C#N)cc1` [BAY-876] gave a Proliferation of 0.01262.

For `O=C(O)[C@H]1[C@H](Cn2nnc3ccccc3c2=O)CC[C@@H]1C(=O)c1ccc(OCCC2CCOCC2)cc1` [BAY-7598], the Proliferation was 0.03535.

In the case of `CCOCCn1cc(C(=O)Nc2ccc(-n3nc(-c4cccnc4)cc3C(F)(F)F)cn2)ccc1=O` [BI 1935], the Proliferation is reported as 0.3766.

For `CC(=O)N1CCC(c2ccc(C(=O)NC(=N)N)cc2C(F)(F)F)CC1` [BI 9627], the Proliferation was 0.09817.

Work on `CCC(=O)N[C@H]1CC[C@@H](C(=O)N(C)c2ccc(-c3nc4ccccc4o3)cc2)C1` [BI 99179] yielded a Proliferation of 0.7724.

With `CN(C)C(=O)Cn1cc(-c2nc([C@@](C)(c3ccc(-c4cnc(N)nc4)cc3)C3CC3)no2)cn1` [BI 665915] the Proliferation was 0.119.

`Cn1cnc2c1c(=O)n(CCCn1c(=O)c3c(ncn3C)n(C)c1=O)c(=O)n2C` [BISDIONIN C] gave a Proliferation of 0.03665.

With `O=c1nc(-c2ccccn2)sc2ccccc12` [BTZO-1] the Proliferation was 0.08275.

For `CNC(=O)c1ccc(Nc2ncc(C(F)(F)F)c(NCc3nccnc3N(C)S(C)(=O)=O)n2)cc1` [DEFACTINIB], the Proliferation was 0.1091.

Work on `O=C(O)Cc1ccccc1Nc1c(Cl)cccc1Cl` [DICLOFENAC] yielded a Proliferation of 0.2575.

In the case of `C[C@@H](NC(=O)Nc1cc2[nH]ncc2c(CO)n1)c1ccccc1` [ERKi], the Proliferation is reported as 0.06922.

Compound `CC(C)c1ccc(Nc2nccc(-c3cnn4ncccc34)n2)cc1` [GW805758X] has a Proliferation of 0.2702.

`CN(Cc1cnc2nc(N)nc(N)c2n1)c1ccc(C(=O)N[C@@H](CCC(=O)O)C(=O)O)cc1` [METHOTREXATE] showed a Proliferation of 0.002627.
